Source: patent US12668599B2, “Heterobifunctional compounds and methods of treating disease” (Halda Therapeutics OpCo, Inc., priority 2023, dated 2026)

What was measured:
[1] = system: T-Rex 293 cell line SC3 cells having increased expression of androgen receptor protein due to exposure to doxycycline; test: Cellular growth inhibition, T-Rex 293 SC3 cells with doxycycline-induced androgen receptor (CellTiter-Glo 2.0, 72 hours); format: cell-based; conditions: for GI50: T-Rex 293 SC3 cells with 10 ng/ml doxycycline (increased androgen receptor expression), 72 hours, CellTiter-Glo 2.0
Experimental: (§1) Ability of the test compounds to inhibit proliferation of the foregoing cell types was evaluated according to the procedures set forth below.
(§2) The doxycycline-inducible androgen receptor protein expressing cell line was established using the following protocol: T-Rex 293 cells were purchased from Invitrogen (Cat #R71007) and transfected using Lipofectamine 2000 with the wild-type androgen receptor protein sequence cloned into the pcDNA4/TO vector. Transfected cells were selected using 400 μg/mL Zeocin (Invitrogen Cat #R25001). Following selection, single clones were raised and maintained in Dulbecco's Modified Eagle Medium (DMEM) supplemented with 10% w/w Tetracycline-free fetal bovine serum (FBS) and 250 μg/mL Zeocin. Clones were analyzed for expression of androgen receptor protein in the presence and absence of 10 ng/ml doxycycline (Sigma Cat #D9891), and a single doxycycline-inducible clone (hereinafter “SC3”) was selected for use in downstream assays.
(§3) The SC3 cells were seeded on poly-D-lysine coated, black clear-bottom 384-well plates at 2500/well, in 25 μL Phenol Red Free Dulbecco's Modified Eagle Medium (DMEM) supplemented with 10% w/w charcoal-dextran treated fetal bovine serum (FBS) and 1% w/w pen-strep, with or without 10 ng/ml doxycycline. Pen-Strep is a commercially available mixture of penicillin G and streptomycin, which is used in mammalian cell culture media to prevent bacterial contamination. Phenol Red Free Dulbecco's Modified Eagle Medium (DMEM) supplemented with 10% w/w charcoal-dextran treated fetal bovine serum (FBS) and 1% w/w pen-strep, with or without 10 ng/mL doxycycline is herein referred to as Treatment Medium. Following seeding of cells in the plates, the plates were spun at 300×g for 30 seconds, then equilibrated to room temperature for 30 minutes, and then deposited in a humidified tissue culture incubator maintained at 37° C. with 5% CO2.
(§4) At 24 hours after seeding of the cells, dilutions of test compound were prepared in DMSO and dissolved in Treatment Medium, to achieve a final DMSO concentration of 0.5% w/w, thereby providing the Test Compound Solution. A 25 μL aliquot of the Test Compound Solution was added to cells in the well plates. An equal volume of a solution containing DMSO and Treatment Medium was used as a negative control. Following treatment of cells with Test Compound Solution or said equal volume of a solution containing DMSO and Treatment Medium, the plates were spun at 300×g for 30 seconds, and then left in an incubator for 72 hours.
(§5) At the end of the treatment duration, cell viability was quantified with CellTiter-Glo 2.0 reagent (Promega Cat #G9243). For this purpose, plates were equilibrated to room temperature for 30 minutes, and then 25 μL of CellTiter-Glo 2.0 reagent was added to cells in the plate wells. Plates were then agitated on a shaker for two minutes at 500 rpm and subsequently incubated at room temperature for 10 minutes. Following incubation, the plates were spun at 3000×g for 30 seconds, then sealed with an optical adhesive cover, and luminescence readings were measured with an En Vision Plate Reader.
(§6) Data was normalized using zero luminescence for baseline. A four-parameter non-linear regression curve fit was applied to dose-response data in GraphPad Prism data analysis software to determine the half-maximal growth inhibitory concentration (GI50) for each test compound.

[2] = system: T-Rex 293 cell line SC3 cells lacking increased expression of androgen receptor protein; test: Cellular growth inhibition, T-Rex 293 SC3 cells without doxycycline (CellTiter-Glo 2.0, 72 hours); format: cell-based; conditions: T-Rex 293 SC3 cells not exposed to doxycycline (no increased androgen receptor expression)
Experimental: as §1, §2, §3, §4, §5, §6

VCaP cells = test: Cellular growth inhibition assay for VCaP cells (CellTiter-Glo 2.0, 72 hours); format: cell-based, human; conditions: for GI50: CellTiter-Glo 2.0
Experimental: Exemplary compounds were tested for ability to inhibit the proliferation of VCaP cells. VCap cells are a commercially available human prostate cancer cell line.
VCaP cells were purchased from American Type Cell Culture (ATCC Cat #CRL2876) and then seeded on poly-D-lysine coated, black clear-bottom 384-well plates at 5000/well in 25 μL Dulbecco's Modified Eagle Medium (DMEM) supplemented with 10% w/w Fetal bovine serum (FBS) and 1% w/w Pen-Strep. Pen-Strep is a commercially available mixture of penicillin G and streptomycin, which is used in mammalian cell culture media to prevent bacterial contamination. Dulbecco's Modified Eagle Medium (DMEM) supplemented with 10% w/w fetal bovine serum (FBS) and 1% w/w Pen-Strep is herein referred to as Treatment Medium. Following seeding of cells in the plates, the plates were spun at 300×g for 30 seconds, then equilibrated to room temperature for 30 minutes, and then deposited in a humidified tissue culture incubator maintained at 37° C. with 5% CO2.
as §4, §5, §6

## COC[C@@H]1N=C(c2ccc(C3CCC4(CC3)CCN(c3ccc(C(=O)NC5CCC(Oc6ccc(C#N)c(OC(F)(F)F)c6)CC5)nn3)C4)cc2)c2c(sc(C)c2C)-n2c(C)nnc21 (stereo partly drawn) [Compound I-2, N-[4-[4-cyano-3-(trifluoromethoxy)phenoxy]cyclohexyl]-6-[8-[4-[(9R)-9-(methoxymethyl)-4,5,13-trimethyl-3-thia-1,8,11,12-tetrazatricyclo[8.3.0.0^2,6]trideca-2 (6),4,7,10,12-pentaen-7-yl]phenyl]-2-azaspiro[4.5]decan-2-yl]pyridazine-3-carboxamide]
[1]
  GI50: < 500 nM
[2]; 72 h
  GI50: < 500 nM
VCaP cells; Homo sapiens, VCaP, 72 h
  GI50: < 500 nM

## COCC[C@@H]1N=C(c2ccc(C3CCC4(CC3)CCN(c3ccc(C(=O)NC5CCC(Oc6ccc(C#N)c(OC(F)(F)F)c6)CC5)nn3)C4)cc2)c2c(sc(C)c2C)-n2c(C)nnc21 (stereo partly drawn) [Compound I-4, N-[4-[4-cyano-3-(trifluoromethoxy)phenoxy]cyclohexyl]-6-[8-[4-[(9S)-9-(2-methoxyethyl)-4,5,13-trimethyl-3-thia-1,8,11,12-tetrazatricyclo[8.3.0.0^2,6]trideca-2 (6),4,7,10,12-pentaen-7-yl]phenyl]-2-azaspiro[4.5]decan-2-yl]pyridazine-3-carboxamide]
[1]
  GI50: < 500 nM
[2]; 72 h
  GI50: 1500 to 3000 nM
VCaP cells; Homo sapiens, VCaP, 72 h
  GI50: < 500 nM

## CC[C@@H]1N=C(c2ccc(C#CC3CC4(C3)CN(c3ccc(C(=O)N[C@H]5CC[C@H](Oc6ccc(C#N)c(OC(F)(F)F)c6)CC5)nn3)C4)cc2)c2c(sc(C)c2C)-n2c(C)nnc21 [Compound I-6, N-[4-[4-cyano-3-(trifluoromethoxy)phenoxy]cyclohexyl]-6-[6-[2-[4-[(9S)-9-ethyl-4,5,13-trimethyl-3-thia-1,8,11,12-tetrazatricyclo[8.3.0.0^2,6]trideca-2 (6),4,7,10,12-pentaen-7-yl]phenyl]ethynyl]-2-azaspiro[3.3]heptan-2-yl]pyridazine-3-carboxamide]
[1]
  GI50: < 500 nM
[2]; 72 h
  GI50: < 500 nM
VCaP cells; Homo sapiens, VCaP, 72 h
  GI50: < 500 nM

## Cc1sc2c(c1C)C(c1ccc(C#CC3CC4(C3)CN(c3ccc(C(=O)N[C@H]5CC[C@H](Oc6ccc(C#N)c(OC(F)(F)F)c6)CC5)nn3)C4)cc1)=NC1(CC1)c1nnc(C)n1-2 [Compound I-7, N-[4-[4-cyano-3-(trifluoromethoxy)phenoxy]cyclohexyl]-6-[6-[2-[4-(4,5,13-trimethylspiro[3-thia-1,8,11,12-tetrazatricyclo[8.3.0.0^2,6]trideca-2 (6),4,7,10,12-pentaene-9,1′-cyclopropane]-7-yl)phenyl]ethynyl]-2-azaspiro[3.3]heptan-2-yl]pyridazine-3-carboxamide]
[1]
  GI50: < 500 nM
[2]; 72 h
  GI50: < 500 nM
VCaP cells; Homo sapiens, VCaP, 72 h
  GI50: < 500 nM

## COC[C@@H]1N=C(c2ccc(C#CC3CC4(C3)CN(c3ccc(C(=O)N[C@H]5CC[C@H](Oc6ccc(C#N)c(OC(F)(F)F)c6)CC5)nn3)C4)cc2)c2c(sc(C)c2C)-n2c(C)nnc21 [Compound I-8, N-[4-[4-cyano-3-(trifluoromethoxy)phenoxy]cyclohexyl]-6-[6-[2-[4-[(9R)-9-(methoxymethyl)-4,5,13-trimethyl-3-thia-1,8,11,12-tetrazatricyclo[8.3.0.0^2,6]trideca-2 (6),4,7,10,12-pentaen-7-yl]phenyl]ethynyl]-2-azaspiro[3.3]heptan-2-yl]pyridazine-3-carboxamide]
[1]
  GI50: < 500 nM
[2]; 72 h
  GI50: < 500 nM
VCaP cells; Homo sapiens, VCaP, 72 h
  GI50: < 500 nM

## COCC[C@@H]1N=C(c2ccc(C#CC3CC4(C3)CN(c3ccc(C(=O)N[C@H]5CC[C@H](Oc6ccc(C#N)c(OC(F)(F)F)c6)CC5)nn3)C4)cc2)c2c(sc(C)c2C)-n2c(C)nnc21 [Compound I-9, N-[4-[4-cyano-3-(trifluoromethoxy)phenoxy]cyclohexyl]-6-[6-[2-[4-[(9S)-9-(2-methoxyethyl)-4,5,13-trimethyl-3-thia-1,8,11,12-tetrazatricyclo[8.3.0.0^2,6]trideca-2 (6),4,7,10,12-pentaen-7-yl]phenyl]ethynyl]-2-azaspiro[3.3]heptan-2-yl]pyridazine-3-carboxamide]
[1]
  GI50: < 500 nM
[2]; 72 h
  GI50: < 500 nM
VCaP cells; Homo sapiens, VCaP, 72 h
  GI50: < 500 nM

## Cc1sc2c(c1C)C(c1ccc(C#CC3CC4(C3)CN(c3ccc(C(=O)N[C@H]5CC[C@H](Oc6ccc(C#N)c(OC(F)(F)F)c6)CC5)nn3)C4)cc1)=N[C@@H](C)c1nnc(C)n1-2 [Compound I-12, N-[4-[4-cyano-3-(trifluoromethoxy)phenoxy]cyclohexyl]-6-[6-[2-[4-[(9S)-4,5,9,13-tetramethyl-3-thia-1,8,11,12-tetrazatricyclo[8.3.0.0^2,6]trideca-2 (6),4,7,10,12-pentaen-7-yl]phenyl]ethynyl]-2-azaspiro[3.3]heptan-2-yl]pyridazine-3-carboxamide]
[1]
  GI50: < 500 nM
[2]; 72 h
  GI50: < 500 nM
VCaP cells; Homo sapiens, VCaP, 72 h
  GI50: < 500 nM

## CC[C@@H]1N=C(c2ccc(C3CCC4(CC3)CCN(c3ccc(C(=O)NC5CCC(Oc6ccc(C#N)c(OC(F)(F)F)c6)CC5)nn3)C4)cc2)c2c(sc(C)c2C)-n2c(C)nnc21 (stereo partly drawn) [Compound I-13, N-((1r,4r)-4-(4-cyano-3-(trifluoromethoxy)phenoxy)cyclohexyl)-6-(8-(4-((S)-6-ethyl-2,3,9-trimethyl-6H-thieno[3,2-f][1,2,4]triazolo[4,3-a][1,4]diazepin-4-yl)phenyl)-2-azaspiro[4.5]decan-2-yl) pyridazine-3-carboxamide]
[1]
  GI50: < 500 nM
[2]
  GI50: < 500 nM
VCaP cells; 72 hours
  GI50: < 500 nM

## Cc1sc2c(c1C)C(c1ccc(OC3CC4(CCN(c5ccc(C(=O)NC6CCC(Oc7ccc(C#N)c(OC(F)(F)F)c7)CC6)nn5)CC4)C3)cc1)=N[C@@H](Cc1ncco1)c1nnc(C)n1-2 (stereo partly drawn) [Compound I-16, N-[4-[4-cyano-3-(trifluoromethoxy)phenoxy]cyclohexyl]-6-[2-[4-[(9S)-4,5,13-trimethyl-9-(oxazol-2-ylmethyl)-3-thia-1,8,11,12-tetrazatricyclo[8.3.0.0^2,6]trideca-2 (6),4,7,10,12-pentaen-7-yl]phenoxy]-7-azaspiro[3.5]nonan-7-yl]pyridazine-3-carboxamide]
[1]
  GI50: < 500 nM
[2]; 72 h
  GI50: < 500 nM
VCaP cells; Homo sapiens, VCaP, 72 h
  GI50: < 500 nM

## COc1cc(O[C@H]2CC[C@H](NC(=O)c3ccc(N4CCC5(CCN(c6ccc(C7=N[C@@H](C)c8nnc(C)n8-c8sc(C)c(C)c87)cc6)CC5)C4)nn3)CC2)ccc1C#N [Compound I-17, N-[4-(4-cyano-3-methoxy-phenoxy)cyclohexyl]-6-[8-[4-[(9S)-4,5,9,13-tetramethyl-3-thia-1,8,11,12-tetrazatricyclo[8.3.0.0^2,6]trideca-2 (6),4,7,10,12-pentaen-7-yl]phenyl]-2,8-diazaspiro[4.5]decan-2-yl]pyridazine-3-carboxamide]
[1]; GI50 of the top compound in the pair divided by GI50 of the lower compound, T-Rex 293 SC3 cells with doxycycline-induced androgen receptor
  Ratio of GI50's: 1
[1]
  GI50: < 500 nM
[2]
  GI50: < 500 nM
VCaP cells; 72 hours
  GI50: < 500 nM
VCaP cells; GI50 of the top compound in the pair divided by GI50 of the lower compound
  Ratio of GI50's: 1
